Measured values from US4518587A, “Dipeptides of L-5-hydroxytryptophan, processes for their preparation and drugs in which they are present” (S.A. Panmedica, priority 1983, dated 1985).
Read-outs that look alike come from different tables or passages of the source. Square brackets hold non-standard residues; d marks the D form. Peptide text beside a SMILES is read from it. * marks the point of attachment. Trp(5-OH) = N[C@@H](Cc1c[nH]c2ccc(O)cc12)C(=O)O; OtBu = CC(C)(C)O*; tBu = CC(C)(C)*

System: brain levels of L-5-hydroxytryptophan (L-5-HTP), serotonin (5-HT) and 5-hydroxyindoleacetic acid (5-HIAA)
Assay: Biochemical analysis of brain levels of L-5-HTP, 5-HT and 5-HIAA one hour after a single dose (technique of CURZON and GREEN)
Assay type: in vivo, rats
Details: for change in vivo at 10 mg/kg / change in vivo at 25 mg/kg / change in vivo at 50 mg/kg: Rattus norvegicus, 1 h; for change in vivo at 10 mg/kg: read-out: %, relative to the controls, of L-5-HTP at dose of 10 mg/kg
Procedure: Biochemical analysis of the brain levles of L-5-hydroxytryptophan (L-5-HTP), serotonin (5-HT) and its first metabolite, 5-hydroxyindoleacetic acid (5- HIAA), was carried out one hour after the administration of a single dose to adult rats by the technique of CURZON and GREEN. Three doses were studied, i.e. 10, 25 and 50 mg/kg, 10 animals being used per dose. Table I below indicates the percentage increases in 5-HTP, 5-HT and 5-HIAA relative to the levels found in the control animals: […]

[1] = brain level, adult rats, single dose 10 mg/kg, one hour after administration, percentage increase relative to control animals
[2] = brain level, adult rats, single dose 25 mg/kg, one hour after administration, percentage increase relative to control animals
[3] = brain level, adult rats, single dose 50 mg/kg, one hour after administration, percentage increase relative to control animals
[4] = brain level, adult rats, single dose 25 mg/kg, one hour after administration, percentage increase relative to control animals, read-out: %, relative to the controls, of L-5-HTP at dose of 25 mg/kg
[5] = brain level, adult rats, single dose 50 mg/kg, one hour after administration, percentage increase relative to control animals, read-out: %, relative to the controls, of 5-HT at dose of 50 mg/kg

Molecule: 5-HYDROXY-L-TRYPTOPHAN-L-VALINE [Example 9]
- %, relative to the controls, of 5-HIAA at dose of 10 mg/kg [1]: 70%
- %, relative to the controls, of 5-HT at dose of 10 mg/kg [1]: 12%
- %, relative to the controls, of L-5-HTP at dose of 10 mg/kg [1]: 300%
- %, relative to the controls, of 5-HIAA at dose of 25 mg/kg [2]: 250%
- %, relative to the controls, of 5-HT at dose of 25 mg/kg [2]: 40%
- %, relative to the controls, of L-5-HTP at dose of 25 mg/kg [2]: 900%
- %, relative to the controls, of 5-HIAA at dose of 50 mg/kg [3]: 320%
- %, relative to the controls, of 5-HT at dose of 50 mg/kg [3]: 45%
- %, relative to the controls, of L-5-HTP at dose of 50 mg/kg [3]: 1700%

Molecule: N[C@@H](Cc1c[nH]c2ccc(O)cc12)C(=O)N[C@@H](Cc1c[nH]c2ccccc12)C(=O)O [Example 14, 5-Hydroxy-L-tryptophyl-L-tryptophan] (H-[Trp(5-OH)]-Trp-OH)
- change in vivo at 10 mg/kg [1]: 50%
- change in vivo at 25 mg/kg [4]: 100%
- change in vivo at 50 mg/kg [5]: 10%
- change in vivo at 50 mg/kg (brain level, adult rats, single dose 50 mg/kg, one hour after administration, percentage increase relative to control animals, read-out: %, relative to the controls, of L-5-HTP at dose of 50 mg/kg): 200%
- %, relative to the controls, of 5-HT at dose of 25 mg/kg [2]: 12%

Molecule: CCOC(=O)CC[C@H](NC(=O)[C@@H](N)Cc1c[nH]c2ccc(O)cc12)C(=O)OCC.Cl [Example 3, Diethyl 5-hydroxy-L-tryptophyl-L-glutamate hydrochloride] (H-[Trp(5-OH)]-Glu(OEt)-OEt)
- change in vivo at 10 mg/kg [1]: 100%
- change in vivo at 25 mg/kg (brain level, adult rats, single dose 25 mg/kg, one hour after administration, percentage increase relative to control animals, read-out: %, relative to the controls, of 5-HIAA at dose of 25 mg/kg): 150%
- change in vivo at 25 mg/kg [4]: 400%
- change in vivo at 50 mg/kg (brain level, adult rats, single dose 50 mg/kg, one hour after administration, percentage increase relative to control animals, read-out: %, relative to the controls, of 5-HIAA at dose of 50 mg/kg): 200%
- change in vivo at 50 mg/kg [5]: 200%
- %, relative to the controls, of 5-HIAA at dose of 10 mg/kg [1]: 50%
- %, relative to the controls, of 5-HT at dose of 10 mg/kg [1]: 10%

Molecule: CC(C)(C)OC[C@H](NC(=O)[C@@H](N)Cc1c[nH]c2ccc(O)cc12)C(=O)OC(C)(C)C [Example 15, Tert.-butyl ester of L-5-hydroxytryptophyl-O-tert.-butyl-L-serine] (H-[Trp(5-OH)]-Ser(tBu)-OtBu)
- %, relative to the controls, of L-5-HTP at dose of 10 mg/kg [1]: 200%
- %, relative to the controls, of 5-HIAA at dose of 25 mg/kg [2]: 60%
- %, relative to the controls, of L-5-HTP at dose of 25 mg/kg [2]: 400%
- %, relative to the controls, of 5-HIAA at dose of 50 mg/kg [3]: 150%
- %, relative to the controls, of L-5-HTP at dose of 50 mg/kg [3]: 900%

Molecule: C[C@H](NC(=O)[C@@H](N)Cc1c[nH]c2ccc(O)cc12)C(=O)O.O [Example 8, 5-HYDROXY-L-TRYPTOPHYL-L-ALANINE HYDRATE] (H-[Trp(5-OH)]-Ala-OH)
- change in vivo at 25 mg/kg (read-out: %, relative to the controls, of 5-HIAA at dose of 25 mg/kg): 140%
- change in vivo at 50 mg/kg (read-out: %, relative to the controls, of 5-HIAA at dose of 50 mg/kg): 400%
- change in vivo at 10 mg/kg: 200%
- %, relative to the controls, of 5-HIAA at dose of 10 mg/kg [1]: 75%
- %, relative to the controls, of 5-HT at dose of 25 mg/kg [2]: 5%

Molecule: COC(=O)[C@H](Cc1c[nH]c2ccc(O)cc12)NC(=O)[C@H](Cc1c[nH]c2ccc(O)cc12)NC(C)=O [Example 7, METHYL ESTER OF N-ACETYL-5-HYDROXY-L-TRYPTOPHYL-5-HYDROXY-L-TRYPTOPHAN] (Ac-[Trp(5-OH)]-[Trp(5-OH)]-OMe)
- %, relative to the controls, of 5-HIAA at dose of 10 mg/kg [1]: 10%
- %, relative to the controls, of L-5-HTP at dose of 10 mg/kg [1]: 10%
- %, relative to the controls, of 5-HIAA at dose of 25 mg/kg [2]: 20%
- %, relative to the controls, of 5-HIAA at dose of 50 mg/kg [3]: 20%
- %, relative to the controls, of L-5-HTP at dose of 50 mg/kg [3]: 30%

Molecule: 5-Hydroxy-L-tryptophyl-5-hydroxy-L-tryptophan hemihydrate [Example 13]
- %, relative to the controls, of 5-HT at dose of 25 mg/kg [2]: 5%
- %, relative to the controls, of L-5-HTP at dose of 25 mg/kg [2]: 50%
- %, relative to the controls, of 5-HIAA at dose of 50 mg/kg [3]: 10%
- %, relative to the controls, of 5-HT at dose of 50 mg/kg [3]: 5%
- %, relative to the controls, of L-5-HTP at dose of 50 mg/kg [3]: 50%
